From patent US8415386B2, “Azolopyrrolone melanin concentrating hormone receptor-1 antagonists” (Bristol-Myers Squibb Company, priority 2008, dated 2013)
Where a name gives a salt, the structure may show the parent alone.

molecular target: T1, mutated (E4Q, A5T) hMCHR1 receptor (Homo sapiens, UniProt Q99705, A5T/E4Q); assay: Radioligand Binding Assay for Assessment of MCHR1 Activity; settings: membranes from stably transfected HEK-293 cells; competition with [Phe13,[125I]Tyr19]-MCH
T1 construct: expressed in transfected cells; host or cells: HEK-293 (stably transfected), membranes
Protocol: Radioligand Binding Assay for Assessment of MCHR1 Activity
Membranes from stably transfected HEK-293 cells expressing a mutated (E4Q, A5T) hMCHR1 receptor were prepared by dounce homogenization and differential centrifugation. Binding experiments were carried out with 0.5-1.0 ug of membrane protein incubated in a total of 0.2 ml in 25 mM HEPES (pH 7.4) with 10 mM MgCl2, 2 mM EGTA, and 0.1% BSA (Binding Buffer) for 90 min. For competition binding assays, reactions were carried out in the presence of with 0.06-0.1 nM [Phe^13, [^125I]Tyr^19]-MCH and increasing concentrations of unlabeled test molecules. Reactions were terminated by rapid vacuum filtration over 96 well-GFC UNIFILTER® plates pre-coated with 0.075 ml binding buffer containing 1% BSA, and washed 3 times with 0.4 ml of Phospho-buffered Saline (pH 7.4) containing 0.01% TX-100. Filters were dried, 0.05 ml microscint 20 was added to each well and radioactivity was subsequently quantified by scintillation counting on a TOPCOUNT® microplate scintillation counter (Packard). Inhibitory constants were determined by nonlinear least squares analysis using a four parameter logistic equation.

T1 sequence (Q99705 whole entry E4Q/A5T): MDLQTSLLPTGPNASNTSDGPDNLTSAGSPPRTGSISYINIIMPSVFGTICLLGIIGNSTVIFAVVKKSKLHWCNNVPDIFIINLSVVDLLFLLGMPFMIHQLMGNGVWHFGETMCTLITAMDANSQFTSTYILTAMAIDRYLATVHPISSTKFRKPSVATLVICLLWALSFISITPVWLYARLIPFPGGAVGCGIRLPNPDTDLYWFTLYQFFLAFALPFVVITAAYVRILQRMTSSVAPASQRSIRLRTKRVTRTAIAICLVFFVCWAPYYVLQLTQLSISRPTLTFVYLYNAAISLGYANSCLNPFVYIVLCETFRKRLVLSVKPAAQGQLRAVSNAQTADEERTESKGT

Point of comparison: CN(C(=O)OC(C)(C)C)[C@@H]1CCN(c2ccc(N3Cc4cn(-c5ccc(Cl)cc5)nc4C3=O)cn2)C1 [Example 19A, (R)-tort-Butyl 1-(5-(2-(4-chlorophenyl)-6-oxopyrrolo[3,4-c]pyrazol-5(2H,4H,6H)-yl)pyridin-2-yl)pyrrolidin-3-yl(methyl)carbamate], Ki 184 nM. Against it:
- COc1cc(N2Cc3nn(-c4ccc(Cl)cc4)cc3C2=O)ccc1OC[C@H](O)C1CC1 [Example 1, (R)-2-(4-Chlorophenyl)-5-(4-(2-cyclopropyl-2-hydroxyethoxy)-3-methoxyphenyl)-5,6-dihydropyrrolo[3,4-c]pyrazol-4(2H)-one] — 4.4-fold lower, 41.4 nM
- COc1cc(N2Cc3nn(-c4ccc(Cl)cc4)cc3C2=O)ccc1OCC(C)O (centres unmarked) [Example 2, 2-(4-Chlorophenyl)-5-(4-(2-hydroxypropoxy)-3-methoxyphenyl)-5,6-dihydropyrrolo[3,4-c]pyrazol-4(2H)-one] — 1.8-fold higher, 334 nM
- COc1cc(N2Cc3nn(-c4ccc(Cl)cc4)cc3C2=O)ccc1OCC(C)(C)O [Example 3, 2-(4-Chlorophenyl)-5-(4-(2-hydroxy-2-methylpropoxy)-3-methoxyphenyl)-5,6-dihydropyrrolo[3,4-c]pyrazol-4(2H)-one] — 1.7-fold lower, 106 nM
- COc1cc(N2Cc3nn(-c4ccc(Cl)cc4)cc3C2=O)ccc1OCC(C)OS(C)(=O)=O (centres unmarked) [Example 4, 1-(4-(2-(4-Chlorophenyl)-4-oxopyrrolo[3,4-c]pyrazol-5(2H,4H,6H)-yl)-2-methoxyphenoxy)propan-2-yl methanesulfonate] — 4.5-fold lower, 41.1 nM
- COc1cc(N2Cc3cn(-c4ccc(Cl)cc4)nc3C2=O)ccc1OCC(C)OS(C)(=O)=O (centres unmarked) [Example 5, 1-(4-(2-(4-Chlorophenyl)-6-oxopyrrolo[3,4-c]pyrazol-5(2H,4H,6H)-yl)-2-methoxyphenoxy)propan-2-yl methanesulfonate] — 13-fold lower, 13.7 nM
- COc1cc(N2Cc3cn(-c4ccc(Cl)cc4)nc3C2=O)ccc1OCC(C)O (centres unmarked) [Example 6, 2-(4-Chlorophenyl)-5-(4-(2-hydroxypropoxy)-3-methoxyphenyl)-4,5-dihydropyrrolo[3,4-c]pyrazol-6(2H)-one] — 14-fold lower, 13.2 nM
- COc1ccc(N2Cc3cn(-c4ccc(Cl)cc4)nc3C2=O)cc1OC [Example 7, 2-(4-Chlorophenyl)-5-(3,4-dimethoxyphenyl)-4,5-dihydropyrrolo[3,4-c]pyrazol-6(2H)-one] — 3.7-fold lower, 49.4 nM
- COc1cc(N2Cc3cn(-c4ccc(Cl)cc4)nc3C2=O)ccc1OCC(C)(C)O [Example 8, 2-(4-Chlorophenyl)-5-(4-(2-hydroxy-2-methylpropoxy)-3-methoxyphenyl)-4,5-dihydropyrrolo[3,4-c]pyrazol-6(2H)-one] — 15-fold lower, 12.5 nM
- COc1cc(N2Cc3cn(-c4ccc(Cl)cc4)nc3C2=O)ccc1OC[C@H](O)C1CC1 [Example 9, (R)-2-(4-Chlorophenyl)-5-(4-(2-cyclopropyl-2-hydroxyethoxy)-3-methoxyphenyl)-4,5-dihydropyrrolo[3,4-c]pyrazol-6(2H)-one] — 21-fold lower, 8.6 nM
- COc1cc(N2Cc3cn(-c4ccc(Cl)cc4)nc3C2=O)ccc1OC[C@H](OC(=O)[C@@H](N)C(C)C)C1CC1 [Example 10, (S)-((R)-2-(4-(2-(4-Chlorophenyl)-6-oxopyrrolo[3,4-c]pyrazol-5(2H,4H,6H)-yl)-2-methoxyphenoxy)-1-cyclopropylethyl) 2-amino-3-methylbutanoate, TFA salt] — 68-fold lower, 2.7 nM
- O=C1c2nn(-c3ccc(Cl)cc3)cc2CN1c1ccc(N2CC[C@@H](O)C2)nc1 [Example 11, (R)-2-(4-Chlorophenyl)-5-(6-(3-hydroxypyrrolidin-1-yl)pyridin-3-yl)-4,5-dihydropyrrolo[3,4-c]pyrazol-6(2H)-one] — 2.3-fold lower, 81 nM
- COc1cc(N2Cc3nn(-c4ccc(Cl)cc4)nc3C2=O)ccc1OCCN1CCCC1 [Example 12, 2-(4-Chlorophenyl)-5-(3-methoxy-4-(2-(pyrrolidin-1-yl)ethoxy)phenyl)-5,6-dihydropyrrolo[3,4-d][1,2,3]triazol-4(2H)-one] — 80-fold lower, 2.3 nM
- COc1cc(N2Cc3nn(-c4ccc(Cl)cc4)nc3C2=O)ccc1OCC(C)(C)O [Example 13, 2-(4-Chlorophenyl)-5-(4-(2-hydroxy-2-methylpropoxy)-3-methoxyphenyl)-5,6-dihydropyrrolo[3,4-d][1,2,3]triazol-4(2H)-one] — 5.4-fold lower, 34.3 nM
- COc1cc(N2Cc3nn(-c4ccc(Cl)cc4)nc3C2=O)ccc1OCC(O)C1CC1 (centres unmarked) [Example 14, 2-(4-Chlorophenyl)-5-(4-(2-cyclopropyl-2-hydroxyethoxy)-3-methoxyphenyl)-5,6-dihydropyrrolo[3,4-d][1,2,3]triazol-4(2H)-one] — 1.6-fold lower, 113 nM
- COc1cc(N2Cc3nn(-c4ccc(Cl)cc4)nc3C2=O)ccc1OCC(=O)C1CC1 [Example 14B, 2-(4-Chlorophenyl)-5-(4-(2-cyclopropyl-2-oxoethoxy)-3-methoxyphenyl)-5,6-dihydropyrrolo[3,4-d][1,2,3]triazol-4(2H)-one] — 1.7-fold higher, 304 nM
- COc1cc(N2Cc3cn(-c4ccc(Cl)cc4)nc3C2=O)ccc1OCCN1CCCC1 [Example 15, 2-(4-Chlorophenyl)-5-(3-methoxy-4-(2-(pyrrolidin-1-yl)ethoxy)phenyl)-4,5-dihydropyrrolo[3,4-c]pyrazol-6(2H)-one, TFA] — 260-fold lower, 0.7 nM
- CNC1CCN(c2ccc(N3Cc4cn(-c5ccc(Cl)cc5)nc4C3=O)cn2)C1 (centres unmarked) [Example 16, 2-(4-Chlorophenyl)-5-(6-(3-(methylamino)pyrrolidin-1-yl)pyridin-3-yl)-4,5-dihydropyrrolo[3,4-c]pyrazol-6(2H)-one, 2 TFA] — 74-fold lower, 2.5 nM
- CN(C(=O)OC(C)(C)C)C1CCN(c2ccc(N3Cc4cn(-c5ccc(Cl)cc5)nc4C3=O)cn2)C1 (centres unmarked) [Example 16G, tert-Butyl 1-(5-(2-(4-chlorophenyl)-6-oxopyrrolo[3,4-e]pyrazol-5(2H,4H,6H)-yl)pyridin-2-yl)pyrrolidin-3-yl(methyl)carbamate] — 51-fold lower, 3.6 nM
- CN(C)[C@H]1CCN(c2ccc(N3Cc4cn(-c5ccc(Cl)cc5)nc4C3=O)cn2)C1 [Example 17, (S)-2-(4-Chlorophenyl)-5-(6-(3-(dimethylamino)pyrrolidin-1-yl)pyridin-3-yl)-4,5-dihydropyrrolo[3,4-c]pyrazol-6(2H)-one, 2 HCl] — 200-fold lower, 0.9 nM
- CN(C)[C@@H]1CCN(c2ccc(N3Cc4cn(-c5ccc(Cl)cc5)nc4C3=O)cn2)C1 [Example 18, HCl] — 260-fold lower, 0.7 nM
- CN[C@@H]1CCN(c2ccc(N3Cc4cn(-c5ccc(Cl)cc5)nc4C3=O)cn2)C1 [Example 19, (R)-2-(4-Chlorophenyl)-5-(6-(3-(methylamino)pyrrolidin-1-yl)pyridin-3-yl)-4,5-dihydropyrrolo[3,4-c]pyrazol-6(2H)-one, 2 HCl] — 140-fold lower, 1.3 nM
- CN[C@H]1CCN(c2ccc(N3Cc4cn(-c5ccc(Cl)cc5)nc4C3=O)cn2)C1 [Example 20, (S)-2-(4-Chlorophenyl)-5-(6-(3-(methylamino)pyrrolidin-1-yl)pyridin-3-yl)-4,5-dihydropyrrolo[3,4-c]pyrazol-6(2H)-one, 2 HCl] — 200-fold lower, 0.9 nM
- CN(C(=O)OC(C)(C)C)[C@H]1CCN(c2ccc(N3Cc4cn(-c5ccc(Cl)cc5)nc4C3=O)cn2)C1 [Example 20A, (S)-tert-Butyl 1-(5-(2-(4-chlorophenyl)-6-oxopyrrolo[3,4-c]pyrazol-5(2H,4H,6H)-yl)pyridin-2-yl)pyrrolidin-3-yl(methyl)carbamate] — 4.3-fold higher, 784 nM
- CC(C)(C)NC1CCN(c2ccc(N3Cc4cn(-c5ccc(Cl)cc5)nc4C3=O)cn2)C1 (centres unmarked) [Example 24, 5-(6-(3-(tert-Butylamino)pyrrolidin-1-yl)pyridin-3-yl)-2-(4-chlorophenyl)-4,5-dihydropyrrolo[3,4-c]pyrazol-6(2H)-one] — 68-fold lower, 2.7 nM
- O=C1c2nn(-c3ccc(Cl)cc3)cc2CN1c1ccc(N2CCC(N3CCCC3)C2)nc1 (centres unmarked) [Example 28, 5-(6-(1,3′-Bipyrrolidin-1′-yl)pyridin-3-yl)-2-(4-chlorophenyl)-4,5-dihydropyrrolo[3,4-c]pyrazol-6(2H)-one] — 200-fold lower, 0.9 nM
- O=C1c2nn(-c3ccc(Cl)cc3)cc2CN1c1ccc(N2CCC(N3CCCC3)CC2)nc1 [Example 29, 2-(4-Chlorophenyl)-5-(6-(4-(pyrrolidin-1-yl)piperidin-1-yl)pyridin-3-yl)-4,5-dihydropyrrolo[3,4-c]pyrazol-6(2H)-one] — 11-fold lower, 17.1 nM
- CN[C@H]1CCN(c2ccc(N3Cc4cn(-c5ccc(Cl)cc5)nc4C3=O)cc2OC)C1 [Example 42, (S)-2-(4-Chlorophenyl)-5-(3-methoxy-4-(3-(methylamino)pyrrolidin-1-yl)phenyl)-4,5-dihydropyrrolo[3,4-c]pyrazol-6(2H)-one, 2 TFA] — 370-fold lower, 0.5 nM
- CN[C@H]1CCN(c2ncc(N3Cc4cn(-c5ccc(Cl)cc5)nc4C3=O)cn2)C1 [Example 47, (S)-2-(4-Chlorophenyl)-5-(2-(3-(methylamino)pyrrolidin-1-yl)pyrimidin-5-yl)-4,5-dihydropyrrolo[3,4-c]pyrazol-6(2H)-one] — 5.6-fold lower, 32.7 nM
